Experiments:
[1] = tested on: pancreatic beta cells in islets of Langerhans; test: Calcium imaging of beta cells in intact islets of Langerhans; assay type: cell-based, CD1 mice; conditions: for effect on amplitude of intracellular Ca2+ fluxes in beta cells, in words: intact islets, 8 mM glucose, ANP 0.1–100 nM, TOP271 isomers 1–100 nM, n = 4–6 islets for each concentration
Description: Reversibility could be achieved by applying cis-TOP271 and then illuminating with blue light (λ = 458–482 nm) to induce trans-isomerisation (Fig. 4i and j). Restoration of beta cell function was only partial (Fig. 4j), however, possibly due to cGMP-mediated sequestration of Ca^2+ into internal stores such as the endoplasmic reticulum.[61] […]
CD1 mice were maintained in a specific pathogen-free facility under a 12 h light–dark cycle with ad libitum access to water and food. Animals were euthanized by cervical dislocation and islets isolated using collagenase digestion. Islets were cultured overnight in Roswell Park Memorial Institute (RPMI) medium supplemented with 10% foetal calf serum and 100 U/mL penicillin and 100 µg/mL streptomycin. No randomization was used for animal experimentation, since mice were only used as tissue donors.
Experimental protocols were approved by the University of Birmingham's Animal Welfare and Ethical Review Body (AWERB) and carried out in accordance with the Animals (Scientific Procedures) Act 1986 of the United Kingdom.
Islets were loaded for 40 min with Fluo8 (AAT Bioquest, Sunnyvale, CA, USA), before imaging using a Crest X-Light spinning disk head coupled to a Nikon Ti-E automated base and 10 x/0.4 NA objective. Pulsed excitation was delivered at λ = 458–482 nm (400 ms exposure; 0.33 Hz) via a Lumencor Spectra X Light Engine, and emitted signals detected at λ = 500–550 nm using a Photometrics Evolve Delta 512 EMCCD.
Illumination to induce photoswitching was performed using either continuous exposure to λ = 458–482 nm or λ = 382–407 nm. In all cases, HEPES-bicarbonate buffer was used, containing in mM: 120 NaCl, 4.8 KCl, 24 NaHCO3, 0.5 Na2HPO4, 5 HEPES, 2.5 CaCl2, 1.2 MgCl2, 8 D-glucose. Ca2+ traces were normalized as F/Fmin (F = fluorescence at any given timepoint; Fmin = minimum fluorescence) and relative change in this value over time denoted by a scale bar.
Non-multifactorial comparisons were made using Student’s t-test. Multifactorial comparisons were prepared using one-way ANOVA. Log-transformed concentration-response curves were fitted using non-linear regression and the Hill equation. All analyses were conducted using Graphpad Prism (Graphpad software) and IgorPro (WaveMetrics software), and results deemed significant * at P<0.05 or ** at P<0.01.

[2] = ex vivo or in vivo, depending on cell environment or azoreductase expression; cited from earlier work
Description: Acting via the NPR-A receptor to generate cGMP, TOP271 allows the reversible photocontrol of contraction/dilation in aortic tissue, as well as Ca^2+ oscillations in rodent islets of Langerhans. Although photodependent cGMP synthesis was described earlier, these approaches rely on the genetically-encoded photosensitive proteins EROS[64],[65] or BeCyclOps,[66],[67] whereas TOP271 allows unprecedented photocontrolled cGMP synthesis in nativ ...

NPR-A = biological target: T1, NPR-A (Homo sapiens, UniProt P16066); test: cGMP assay (HTRF) in HEK293T cells transiently transfected with NPR-A; assay type: cell-based; conditions: in vitro
T1 construct: expressed in transfected cells; host or cells: HEK293t cells (DSMZ #305), transiently co-transfected with pCMV5_GC-A and YFP
T1 sequence (P16066 33-1061): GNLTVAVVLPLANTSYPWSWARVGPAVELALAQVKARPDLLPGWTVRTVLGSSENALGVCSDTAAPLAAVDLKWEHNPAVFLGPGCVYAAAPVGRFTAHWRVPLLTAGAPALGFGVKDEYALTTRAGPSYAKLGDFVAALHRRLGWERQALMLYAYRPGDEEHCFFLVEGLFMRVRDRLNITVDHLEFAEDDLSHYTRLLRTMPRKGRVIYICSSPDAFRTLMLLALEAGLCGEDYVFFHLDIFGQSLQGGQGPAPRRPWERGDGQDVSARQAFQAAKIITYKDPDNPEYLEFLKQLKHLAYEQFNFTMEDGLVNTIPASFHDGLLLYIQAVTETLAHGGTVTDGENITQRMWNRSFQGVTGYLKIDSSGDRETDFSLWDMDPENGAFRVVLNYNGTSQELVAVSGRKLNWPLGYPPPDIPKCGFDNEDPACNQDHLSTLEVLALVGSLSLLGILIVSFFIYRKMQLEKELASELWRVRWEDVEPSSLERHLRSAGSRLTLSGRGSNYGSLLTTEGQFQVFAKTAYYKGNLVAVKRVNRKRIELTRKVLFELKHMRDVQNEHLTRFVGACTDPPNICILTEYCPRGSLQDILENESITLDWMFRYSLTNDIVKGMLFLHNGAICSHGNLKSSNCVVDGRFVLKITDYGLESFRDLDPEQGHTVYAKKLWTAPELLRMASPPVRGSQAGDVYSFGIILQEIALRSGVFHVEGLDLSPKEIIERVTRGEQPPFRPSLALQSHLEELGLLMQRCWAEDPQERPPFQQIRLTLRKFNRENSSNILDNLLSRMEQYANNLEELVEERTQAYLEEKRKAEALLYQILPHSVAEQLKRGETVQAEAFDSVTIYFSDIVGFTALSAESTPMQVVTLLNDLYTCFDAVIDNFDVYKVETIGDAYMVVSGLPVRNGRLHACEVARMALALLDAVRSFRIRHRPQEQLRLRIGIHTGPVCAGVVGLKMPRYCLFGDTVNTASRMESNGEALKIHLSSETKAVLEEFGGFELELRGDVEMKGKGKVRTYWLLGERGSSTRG
Description: To test cGMP synthesis, each peptide was applied as the trans- or cis-isomer by keeping them either in the dark or pre-illuminating with UV light (λ = 365 nm) for 15 minutes, respectively.
cGMP assay in transiently transfected HEK293t cells
HEK293t cells (obtained from the Leibniz-Institute DSMZ, Braunschweig, Germany, #305, regularly mycoplasma tested) were transfected with pCMV5_GC-A 4 and YFP using Lipofectamine 2000® (Life Science, Indianapolis, IN, USA) at >80% confluency in a T25 flask according to the manufacturer’s instructions. After 24 h, cells were checked by means of YFP fluorescence for successful transfection (>70% efficiency), washed once and harvested with 1 mL Hepes-Krebs-Ringer (HKR) buffer (containing in mM: 135 NaCl, 5 KCl, 1 MgSO4, 0.4 K2HPO4, 5.5 D-glucose, 20 HEPES, 1 CaCl2, pH = 7.4) supplemented with PDE inhibitors IBMX (500 µM, Tocris, Bristol, UK, #2840) and Ro
µL of cell solution was pipetted into each well of a 384-well plate (white, flat bottom, Greiner, Frickenhausen, Germany). […] The resulting assays were incubated for 30 min before they were lysed and treated with a cGMP HTRF kit (Cisbio, Codolet, France) according to the manufacturer’s instructions. cGMP levels were read with a Omega platereader (BMG Labtech, Offenburg, Germany) after 1 h of incubation time and normalized according to the cGMP standards. […]

[3] = tested on: murine thoracic aortic rings; test: Aortic tensometry, pre-constricted aortic rings; set-up: species or system C57BL/6 mice; conditions: for vasodilation of pre-constricted aortic rings, in words: rings pre-contracted with 1 µM phenylephrine, 200 μM L-NAME and 3 μM diclofenac present, n = 6 aortic rings from 4 animals
Description: We next sought to address whether TOP271 would allow the optical control of cGMP-dependent processes in a physiologically relevant system, i.e. the aortic ring preparation. […] Accordingly, we predicted that TOP271 would allow reversible, light-controlled vasoactive responses, with cis-TOP271 being the stronger effector at specific concentrations. […] Although this concentration–response indicated a significant difference in receptor activation for 100 nM TOP271, we decided to use 400 nM TOP271 to trigger a stronger isomer-dependent vasodilation.
Fig. 3 TOP271 allows photocontrol of aortic tissue. (a) Concentration-response curves for trans- and cis-TOP271. (b) Aortic relaxation for cycles in (d) and (e). […] (d, e) Reversible photocontrol over aortic tension by application of trans-TOP271 (d) and cis-TOP271 (e) with UV-/blue and blue/UV-light (365 and 460 nm) cycles, respectively. All experiments were conducted in the presence of 200 μM N-ω-nitro-L-arginine methyl ester (L-NAME) and 3 μM diclofenac, which were used to block the vascular relaxants nitric oxide and prostacyclin, respectively. PE = phenylephrine was used for initial vasoconstriction, IBMX = 3-iso-butyl-1-methylxanthine was used to induce complete muscular relaxation as an end point control. (n = 6 aortic rings from 4 animals) (*P < 0.05, **P < 0.01, repeated measures Student's t-test). Values represent the mean ± SEM. […]
Murine thoracic aortic rings were mounted in a myograph as described recently16. In detail, thoracic aortas from C57BL/6 mice were explanted and cut into rings and mounted on fixed segment support pins in two four-chamber Myograph 610 (Danish Myo Technology, Aarhus, Denmark) containing 5 ml of Krebs–Henseleit solution (containing […]
glucose, pH 7.4), bubbled with 95% O2 and 5% CO2. Resting tension was set to 5 mN in the presence of Diclofenac (3 µM) and N-nitro-L-arginine methyl ester (L-NAME) (200 µM). After equilibration (45 minutes at 37 °C), rings were pre-contracted with 1 µM phenylephrine (PE). Since aortic ring myography is sensitive to temperature fluctuations, effects of direct and indirect illumination on vasoactivity were determined. […] The vasorelaxing effects of pre-illuminated cis- and dark trans-TOP271 were assessed once a steady plateau was reached. […]
were prepared (10 mM in water), of which an aliquot of TOP271 was either pre-illuminated at λ = 365 nm using a UVP 3UV benchtop UV lamp to obtain the cis-isomer, or kept in the dark to maintain the trans-isomer. […] Read-out was conducted in between illumination cycles as soon as a steady plateau was reached to exclude any light dilational effects. […]

[4] = in benzene at 0 °C; cited from earlier work
Description: As expected for an electron-poor azobenzene, all peptides were bistable (TOP271 Fig. 2c, TOP263-270 ESI Fig. 3 ^†). ^¶ ¶All peptides are available for academic use from the Hoffmann-Röder lab upon request. This advantageous trait allows samples to be pre-illuminated prior to application rather than needing constant illumination. […], and because the compounds were bistable, the initial back-relaxation was obtained as a linear function from the first 30 min after ceasing illumination. P ...

## CC[C@H](C)[C@@H]1NC(=O)[C@H](CCCNC(=N)N)NC(=O)[C@H](CC(=O)O)NC(=O)[C@H](CCSC)NC(=O)[C@H](CCCNC(=N)N)NC(=O)CNC(=O)CNC(=O)[C@H](Cc2ccccc2)NC(=O)[C@@H](NC(=O)[C@H](CO)NC(=O)[C@H](CO)NC(=O)[C@H](CCCNC(=N)N)NC(=O)[C@H](CCCNC(=N)N)NC(=O)[C@H](CC(C)C)NC(=O)[C@@H](N)CO)CSSC[C@@H](C(=O)N[C@@H](CC(N)=O)C(=O)N[C@@H](CO)C(=O)N[C@@H](Cc2ccccc2)C(=O)N[C@@H](CCCNC(=N)N)C(=O)N[C@@H](Cc2ccc(O)cc2)C(=O)O)NC(=O)CNC(=O)[C@H](CC(C)C)NC(=O)CNC(=O)[C@H](CO)NC(=O)[C@H](CCC(N)=O)NC(=O)[C@H](C)NC(=O)CNC1=O [ANP, human atrial natriuretic peptide, reference compound]
[1]
  effect on amplitude of intracellular Ca2+ fluxes in beta cells, in words: suppressed beta cell function
[1]; low (0.1 nm) but not high (10 nm) concentration, n = 5-7 islets for each concentration
  pancreatic beta cell Ca2+ spiking frequency: stimulate increases

## CCN(CC)c1ccc(/N=N/c2ccc(S(=O)(=O)NC(=O)NC3CCCCC3)cc2)cc1 [JB253]
[2]
  degradation of the diazene unit: not the case

## CC[C@H](C)[C@@H]1NC(=O)[C@H](CCCNC(=N)N)NC(=O)[C@H](CC(=O)O)NC(=O)[C@H](CCSC)NC(=O)[C@H](CCCNC(=N)N)NC(=O)CNC(=O)CNC(=O)[C@H](Cc2ccccc2)NC(=O)[C@@H](NC(=O)[C@H](CO)NC(=O)[C@H](CO)NC(=O)[C@H](CCCNC(=N)N)NC(=O)[C@H](CCCNC(=N)N)NC(=O)[C@H](CC(C)C)NC(=O)[C@@H](N)CO)CSSC[C@@H](C(=O)N[C@@H](CC(N)=O)C(=O)N[C@@H](CO)C(=O)N[C@@H](Cc2ccccc2)C(=O)N[C@@H](CCCNC(=N)N)C(=O)N[C@@H](Cc2ccc(O)cc2)C(=O)O)NC(=O)Cc2cccc(c2)/N=N\c2cccc(c2)CNC(=O)[C@H](CCC(N)=O)NC(=O)[C@H](C)NC(=O)CNC1=O [cis-TOP271]
NPR-A
  fold higher potency of cis- over trans-isomer for cGMP generation: 4 fold
[3]; 400 nM, aortic rings
  speed of the initial vasodilation, cis- compared to trans-TOP271: 1.5 ×
[3]; 400 nM
  vasodilation of pre-constricted aortic rings, in words: potent vasodilation
[3]; pre-illuminated isomers, 100 nM to 1 μM range, pre-constricted aortic rings
  vasodilation concentration-response, cis- versus trans-isomer: increased potency
[1]; cis-TOP271 applied, then blue light, n = 5 islets
  restoration of beta cell function after blue light (458–482 nm) trans-isomerisation: only partial
[1]
  effect on amplitude of intracellular Ca2+ fluxes in beta cells, in words: robustly suppressed Ca^2+ rises

## CC[C@H](C)[C@@H]1NC(=O)[C@H](CCCNC(=N)N)NC(=O)[C@H](CC(=O)O)NC(=O)[C@H](CCSC)NC(=O)[C@H](CCCNC(=N)N)NC(=O)CNC(=O)CNC(=O)[C@H](Cc2ccccc2)NC(=O)[C@@H](NC(=O)[C@H](CO)NC(=O)[C@H](CO)NC(=O)[C@H](CCCNC(=N)N)NC(=O)[C@H](CCCNC(=N)N)NC(=O)[C@H](CC(C)C)NC(=O)[C@@H](N)CO)CSSC[C@@H](C(=O)N[C@@H](CC(N)=O)C(=O)N[C@@H](CO)C(=O)N[C@@H](Cc2ccccc2)C(=O)N[C@@H](CCCNC(=N)N)C(=O)N[C@@H](Cc2ccc(O)cc2)C(=O)O)NC(=O)Cc2cccc(c2)/N=N/c2cccc(c2)CNC(=O)[C@H](CCC(N)=O)NC(=O)[C@H](C)NC(=O)CNC1=O [trans-TOP271]
[3]; 400 nM
  vasodilation of pre-constricted aortic rings, in words: strong vasodilation
[1]
  effect on amplitude of intracellular Ca2+ fluxes in beta cells, in words: only a small decrease

## c1ccc(/N=N/c2ccccc2)cc1 [unsubstituted azobenzene, azobenzene]
[4]
  k obs thermal relaxation: 3.58 × 10^–4 a.u. min^–1

Source: PMC5471452, “Optical control of a receptor-linked guanylyl cyclase using a photoswitchable peptidic hormone” (Chemical Science, 2017)
